In US9708314B2, “Heterocyclic amide compound” (NISSAN CHEMICAL INDUSTRIES, LTD., priority 2013, dated 2017):

Columns and labels:
Type in all cases: in vivo
[1] = system: Beta vulgaris ssp. vulgaris; experiment: Test Example 4: effect on crop by application to foliage (diluvial soil, plastic box); details: Application herbicide amount 320 g/ha; foliage application
Summary of the method: (§1)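 Greenhouse plants (25° C. to 30° C., 14 d, diluvial soil) receive a foliar spray of water-diluted emulsifiable formulation at defined g/ha. Grading after 3 weeks uses a six-step herbicidal-ratio scale, with 4 covering 70% to <90% and 1 covering 5% to <20%.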

[2] = system: Brassica campestris L.; experiment: as above; details: Application herbicide amount 320 g/ha; foliage application
Summary of the method: as §1

[3] = system: Triticum aestivum; experiment: as above; details: Application herbicide amount 320 g/ha; foliage application
Summary of the method: as §1

[4] = system: Zea mays; experiment: as above; details: Application herbicide amount 320 g/ha; foliage application
Summary of the method: as §1

[5] = system: Glycine max; experiment: as above; details: Application herbicide amount 320 g/ha; foliage application
Summary of the method: as §1

[6] = system: Setaria viridis; experiment: Test Example 4: herbicidal effect by application to foliage (diluvial soil, plastic box); details: Application herbicide amount 320 g/ha; foliage application
Summary of the method: as §1

[7] = system: Chenopodium album; experiment: as above; details: Application herbicide amount 320 g/ha; foliage application
Summary of the method: as §1

[8] = system: Galium spurium; experiment: as above; details: Application herbicide amount 320 g/ha; foliage application
Summary of the method: as §1

[9] = system: Abutilon theophrasti; experiment: as above; details: Application herbicide amount 320 g/ha; foliage application
Summary of the method: as §1

[10] = system: Alopecurus myosuroides; experiment: as above; details: Application herbicide amount 320 g/ha; foliage application
Summary of the method: as §1

[11] = system: Stellaria media; experiment: as above; details: Application herbicide amount 320 g/ha; foliage application
Summary of the method: as §1

[12] = system: Echinochloa crus-galli var. crus-galli; experiment: as above; details: Application herbicide amount 320 g/ha; foliage application
Summary of the method: as §1

[13] = system: Apera spica-venti.; experiment: as above; details: Application herbicide amount 320 g/ha; foliage application
Summary of the method: as §1

[14] = system: Amaranthus retroflexus; experiment: as above; details: Application herbicide amount 320 g/ha; foliage application
Summary of the method: as §1

[15] = system: Avena fatua; experiment: as above; details: Application herbicide amount 320 g/ha; foliage application
Summary of the method: as §1

[16] = system: Digitaria ciliaris; experiment: as above; details: Application herbicide amount 320 g/ha; foliage application
Summary of the method: as §1

[17] = system: Lolium multiflorum Lam.; experiment: as above; details: Application herbicide amount 320 g/ha; foliage application
Summary of the method: as §1

[18] = system: Veronica persica; experiment: as above; details: Application herbicide amount 320 g/ha; foliage application
Summary of the method: as §1

[19] = system: transplanted Oryza sativa; experiment: Test Example 1: effect on crop, application before weed generation in submerged conditions; details: Application herbicide amount 320 g/ha; Seventeenth Table
Summary of the method: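 Water-diluted emulsion formulation is applied onto flood water (4 cm deep) covering alluvial soil on the day weed seeds are sown, after transplanting 2.5 leaf stage rice. Rates are expressed per hectare. Injury or control is graded 0–5 three weeks later.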

SMILES | f (Beta vulgaris ssp. vulgaris) effect on crop grade [1] | g (Brassica campestris L.) effect on crop grade [2] | e (Triticum aestivum) effect on crop grade [3] | c (Zea mays) effect on crop grade [4] | d (Glycine max) effect on crop grade [5] | G (Setaria viridis) herbicidal effect grade [6] | O (Chenopodium album) herbicidal effect grade [7] | Q (Galium spurium) herbicidal effect grade [8] | M (Abutilon theophrasti) herbicidal effect grade [9] | J (Alopecurus myosuroides) herbicidal effect grade [10] | P (Stellaria media) herbicidal effect grade [11] | H (Echinochloa crus-galli var. crus-galli) herbicidal effect grade [12] | L (Apera spica-venti.) herbicidal effect grade [13] | N (Amaranthus retroflexus) herbicidal effect grade [14] | I (Avena fatua) herbicidal effect grade [15] | F (Digitaria ciliaris) herbicidal effect grade [16] | K (Lolium multiflorum Lam.) herbicidal effect grade [17] | R (Veronica persica) herbicidal effect grade [18] | a: transplanted Oryza sativa (effect on crop grade) [19]
Cc1nnc(NC(=O)c2ccc(C(F)(F)F)n3c(N4CCCC4)nnc23)o1 [1-136] | 4 (Herbicidal ratio of 70% or more and less than 90%) | 0 (Herbicidal ratio of 5% or less (almost no effect)) | 0 (Herbicidal ratio of 5% or less (almost no effect)) | 1 (Herbicidal ratio of 5% or more and less than 20%) | 3 (Herbicidal ratio of 40% or more and less than 70%) | 2 (Herbicidal ratio of 20% or more and less than 40%) | 5 (Herbicidal ratio of 90% or more (almost completely withered)) | 0 (Herbicidal ratio of 5% or less (almost no effect)) | 3 (Herbicidal ratio of 40% or more and less than 70%) | 0 (Herbicidal ratio of 5% or less (almost no effect)) | 4 (Herbicidal ratio of 70% or more and less than 90%) | 4 (Herbicidal ratio of 70% or more and less than 90%) | 1 (Herbicidal ratio of 5% or more and less than 20%) | 2 (Herbicidal ratio of 20% or more and less than 40%) | 0 (Herbicidal ratio of 5% or less (almost no effect)) | 4 (Herbicidal ratio of 70% or more and less than 90%) | 0 (Herbicidal ratio of 5% or less (almost no effect)) | 3 (Herbicidal ratio of 40% or more and less than 70%) | 1 (Herbicidal ratio of 5% or more and less than 20%)
CCN(C)c1nnc2c(C(=O)Nc3nnco3)ccc(C(F)(F)F)n12 [1-137] | 5 (Herbicidal ratio of 90% or more (almost completely withered)) | 5 (Herbicidal ratio of 90% or more (almost completely withered)) | 2 (Herbicidal ratio of 20% or more and less than 40%) | 0 (Herbicidal ratio of 5% or less (almost no effect)) | 4 (Herbicidal ratio of 70% or more and less than 90%) | 5 (Herbicidal ratio of 90% or more (almost completely withered)) | 5 (Herbicidal ratio of 90% or more (almost completely withered)) | 3 (Herbicidal ratio of 40% or more and less than 70%) | 3 (Herbicidal ratio of 40% or more and less than 70%) | 2 (Herbicidal ratio of 20% or more and less than 40%) | 5 (Herbicidal ratio of 90% or more (almost completely withered)) | 5 (Herbicidal ratio of 90% or more (almost completely withered)) | 4 (Herbicidal ratio of 70% or more and less than 90%) | 4 (Herbicidal ratio of 70% or more and less than 90%) | 3 (Herbicidal ratio of 40% or more and less than 70%) | 4 (Herbicidal ratio of 70% or more and less than 90%) | 2 (Herbicidal ratio of 20% or more and less than 40%) | 5 (Herbicidal ratio of 90% or more (almost completely withered)) | 3 (Herbicidal ratio of 40% or more and less than 70%)
CCN(CC)c1nnc2c(C(=O)Nc3nnco3)ccc(C(F)(F)F)n12 [1-138] | 5 (Herbicidal ratio of 90% or more (almost completely withered)) | 4 (Herbicidal ratio of 70% or more and less than 90%) | 1 (Herbicidal ratio of 5% or more and less than 20%) | 0 (Herbicidal ratio of 5% or less (almost no effect)) | 3 (Herbicidal ratio of 40% or more and less than 70%) | 3 (Herbicidal ratio of 40% or more and less than 70%) | 5 (Herbicidal ratio of 90% or more (almost completely withered)) | 2 (Herbicidal ratio of 20% or more and less than 40%) | 3 (Herbicidal ratio of 40% or more and less than 70%) | 1 (Herbicidal ratio of 5% or more and less than 20%) | 5 (Herbicidal ratio of 90% or more (almost completely withered)) | 5 (Herbicidal ratio of 90% or more (almost completely withered)) | 3 (Herbicidal ratio of 40% or more and less than 70%) | 4 (Herbicidal ratio of 70% or more and less than 90%) | 2 (Herbicidal ratio of 20% or more and less than 40%) | 4 (Herbicidal ratio of 70% or more and less than 90%) | 1 (Herbicidal ratio of 5% or more and less than 20%) | 5 (Herbicidal ratio of 90% or more (almost completely withered)) | 2 (Herbicidal ratio of 20% or more and less than 40%)
O=C(Nc1nnco1)c1ccc(C(F)(F)F)n2c(N3CCCC3)nnc12 [1-139] | 5 (Herbicidal ratio of 90% or more (almost completely withered)) | 4 (Herbicidal ratio of 70% or more and less than 90%) | 1 (Herbicidal ratio of 5% or more and less than 20%) | 0 (Herbicidal ratio of 5% or less (almost no effect)) | 3 (Herbicidal ratio of 40% or more and less than 70%) | 3 (Herbicidal ratio of 40% or more and less than 70%) | 5 (Herbicidal ratio of 90% or more (almost completely withered)) | 2 (Herbicidal ratio of 20% or more and less than 40%) | 3 (Herbicidal ratio of 40% or more and less than 70%) | 0 (Herbicidal ratio of 5% or less (almost no effect)) | 5 (Herbicidal ratio of 90% or more (almost completely withered)) | 5 (Herbicidal ratio of 90% or more (almost completely withered)) | 0 (Herbicidal ratio of 5% or less (almost no effect)) | 4 (Herbicidal ratio of 70% or more and less than 90%) | 1 (Herbicidal ratio of 5% or more and less than 20%) | 5 (Herbicidal ratio of 90% or more (almost completely withered)) | 1 (Herbicidal ratio of 5% or more and less than 20%) | 5 (Herbicidal ratio of 90% or more (almost completely withered)) | 2 (Herbicidal ratio of 20% or more and less than 40%)
CC(C)c1nnc2c(C(=O)Nc3nnc(C[S+](C)[O-])o3)ccc(C(F)(F)F)n12 (centres unmarked) [1-143] | 2 (Herbicidal ratio of 20% or more and less than 40%) | 3 (Herbicidal ratio of 40% or more and less than 70%) | 0 (Herbicidal ratio of 5% or less (almost no effect)) | 0 (Herbicidal ratio of 5% or less (almost no effect)) | 1 (Herbicidal ratio of 5% or more and less than 20%) | 0 (Herbicidal ratio of 5% or less (almost no effect)) | 4 (Herbicidal ratio of 70% or more and less than 90%) | 2 (Herbicidal ratio of 20% or more and less than 40%) | 2 (Herbicidal ratio of 20% or more and less than 40%) | 0 (Herbicidal ratio of 5% or less (almost no effect)) | 3 (Herbicidal ratio of 40% or more and less than 70%) | 4 (Herbicidal ratio of 70% or more and less than 90%) | 0 (Herbicidal ratio of 5% or less (almost no effect)) | 2 (Herbicidal ratio of 20% or more and less than 40%) | 0 (Herbicidal ratio of 5% or less (almost no effect)) | 2 (Herbicidal ratio of 20% or more and less than 40%) | 0 (Herbicidal ratio of 5% or less (almost no effect)) | 3 (Herbicidal ratio of 40% or more and less than 70%) | 0 (Herbicidal ratio of 5% or less (almost no effect))
